Assay results reported in PubChem BioAssay (NCI).
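Tested at 5 concentrations; 48 h exposure; 96-well plates; endpoints linearly interpolated, else capped at highest concentration. TGI: concentration producing complete growth inhibition.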

Key:
Assay in all cases: inhibition of tumour cell growth, NCI panel, 48 h
UO-31 renal = tested on: UO-31 renal
786-0 renal = tested on: 786-0 renal
SK-MEL-2 melanoma = tested on: SK-MEL-2 melanoma
SNB-75 CNS = tested on: SNB-75 CNS
M14 melanoma = tested on: M14 melanoma
HT29 colon = tested on: HT29 colon
MCF7 breast = tested on: MCF7 breast
RXF 393 renal = tested on: RXF 393 renal
NCI-H522 lung = tested on: NCI-H522 lung
IGROV1 ovarian = tested on: IGROV1 ovarian
NCI/ADR-RES ovarian = tested on: NCI/ADR-RES ovarian
UACC-62 melanoma = tested on: UACC-62 melanoma
HCC-2998 colon = tested on: HCC-2998 colon
SW-620 colon = tested on: SW-620 colon
DU-145 prostate = tested on: DU-145 prostate
COLO 205 colon = tested on: COLO 205 colon
KM12 colon = tested on: KM12 colon
EKVX NSCLC = tested on: EKVX NSCLC
SF-268 CNS = tested on: SF-268 CNS
SK-OV-3 ovarian = tested on: SK-OV-3 ovarian
SK-MEL-28 melanoma = tested on: SK-MEL-28 melanoma
HOP-92 NSCLC = tested on: HOP-92 NSCLC
MDA-MB-231 breast = tested on: MDA-MB-231 breast
PC-3 prostate = tested on: PC-3 prostate
OVCAR-4 ovarian = tested on: OVCAR-4 ovarian
HCT-116 colon = tested on: HCT-116 colon
NCI-H23 lung = tested on: NCI-H23 lung
HOP-62 NSCLC = tested on: HOP-62 NSCLC
SF-295 CNS = tested on: SF-295 CNS
SN12C renal = tested on: SN12C renal
SF-539 CNS = tested on: SF-539 CNS
MDA-MB-435 = tested on: MDA-MB-435
A498 renal = tested on: A498 renal
SK-MEL-5 melanoma = tested on: SK-MEL-5 melanoma
BT-549 breast = tested on: BT-549 breast
HS 578T breast = tested on: HS 578T breast
ACHN renal = tested on: ACHN renal
T-47D breast = tested on: T-47D breast
OVCAR-5 ovarian = tested on: OVCAR-5 ovarian
MDA-N = tested on: MDA-N
NCI-H226 lung = tested on: NCI-H226 lung
HCT-15 colon = tested on: HCT-15 colon
CCRF-CEM leukemia = tested on: CCRF-CEM leukemia
U251 CNS = tested on: U251 CNS
CAKI-1 renal = tested on: CAKI-1 renal
A549 NSCLC = tested on: A549 NSCLC
SNB-19 CNS = tested on: SNB-19 CNS
NCI-H460 lung = tested on: NCI-H460 lung
TK-10 renal = tested on: TK-10 renal
OVCAR-3 ovarian = tested on: OVCAR-3 ovarian
UACC-257 melanoma = tested on: UACC-257 melanoma

`O=C(O)c1cc(NCc2cc(O)ccc2O)ccc1O` was tested, and the TGI (UO-31 renal) was greater than 100 µM, the TGI (786-0 renal) was greater than 100 µM and the TGI (SK-MEL-2 melanoma) was greater than 100 µM. For the same compound, the TGI (SNB-75 CNS) was greater than 100 µM, the TGI (M14 melanoma) was greater than 100 µM and the TGI (HT29 colon) was greater than 100 µM. The TGI (MCF7 breast) was greater than 100 µM, the TGI (RXF 393 renal) was greater than 100 µM and the TGI (NCI-H522 lung) was 40.7 µM. For the same compound, the TGI (IGROV1 ovarian) was greater than 100 µM, the TGI (NCI/ADR-RES ovarian) was greater than 100 µM and the TGI (UACC-62 melanoma) was greater than 100 µM. For the same compound, the TGI (HCC-2998 colon) was greater than 100 µM, the TGI (SW-620 colon) was 50.6 µM and the TGI (DU-145 prostate) was greater than 100 µM. The TGI (COLO 205 colon) was greater than 100 µM, the TGI (KM12 colon) was greater than 100 µM and the TGI (EKVX NSCLC) was greater than 100 µM. It also gave a TGI (SF-268 CNS) greater than 100 µM, a TGI (SK-OV-3 ovarian) greater than 100 µM and a TGI (SK-MEL-28 melanoma) greater than 100 µM. For the same compound, the TGI (HOP-92 NSCLC) was greater than 100 µM, the TGI (MDA-MB-231 breast) was greater than 100 µM and the TGI (PC-3 prostate) was greater than 100 µM. For the same compound, the TGI (OVCAR-4 ovarian) was greater than 100 µM, the TGI (HCT-116 colon) was greater than 100 µM and the TGI (NCI-H23 lung) was greater than 100 µM. It also gave a TGI (HOP-62 NSCLC) greater than 100 µM, a TGI (SF-295 CNS) greater than 100 µM and a TGI (SN12C renal) greater than 100 µM. The TGI (SF-539 CNS) was greater than 100 µM, the TGI (MDA-MB-435) was greater than 100 µM and the TGI (A498 renal) was greater than 100 µM. For the same compound, the TGI (SK-MEL-5 melanoma) was greater than 100 µM, the TGI (BT-549 breast) was greater than 100 µM and the TGI (HS 578T breast) was greater than 100 µM. It also gave a TGI (ACHN renal) greater than 100 µM, a TGI (T-47D breast) greater than 100 µM and a TGI (OVCAR-5 ovarian) greater than 100 µM. For the same compound, the TGI (MDA-N) was 55.1 µM, the TGI (NCI-H226 lung) was greater than 100 µM and the TGI (HCT-15 colon) was greater than 100 µM. For the same compound, the TGI (CCRF-CEM leukemia) was greater than 100 µM, the TGI (U251 CNS) was greater than 100 µM and the TGI (CAKI-1 renal) was greater than 100 µM. The TGI (A549 NSCLC) was greater than 100 µM, the TGI (SNB-19 CNS) was greater than 100 µM and the TGI (NCI-H460 lung) was greater than 100 µM. The TGI (TK-10 renal) was greater than 100 µM, the TGI (OVCAR-3 ovarian) was greater than 100 µM and the TGI (UACC-257 melanoma) was greater than 100 µM.
